Literature values in PMC3986712, “Diclofenac Salts. V. Examples of Polymorphism among Diclofenac Salts with Alkyl-hydroxy Amines Studied by DSC and HSM” (Pharmaceutics, 2010).

Conditions: free base (counterion), no reference given

## NC(CO)(CO)CO [TRIS base, Tris-methylol aminomethane]
  pKa: 7.76
